Reference: US9487529B2, “Macrocyclic compounds as ALK, FAK and JAK2 inhibitors” (Cephalon, Inc., priority 2011, dated 2016)
Where a name gives a salt, the structure may show the parent alone. Read-outs that look alike come from different tables or passages of the source.

Assays:
[1] = biological target: T1, human insulin receptor cytoplasmic domain (βIRCD) (Homo sapiens, UniProt P06213); assay: Insulin Receptor Kinase Assay (TRF); format: biochemical; conditions: 20 μM ATP, read-out: IR IC50
T1 construct: human insulin receptor cytoplasmic domain (βIRCD); host or cells: baculovirus expression system
T1 sequence (P06213 980-1382 limits assumed): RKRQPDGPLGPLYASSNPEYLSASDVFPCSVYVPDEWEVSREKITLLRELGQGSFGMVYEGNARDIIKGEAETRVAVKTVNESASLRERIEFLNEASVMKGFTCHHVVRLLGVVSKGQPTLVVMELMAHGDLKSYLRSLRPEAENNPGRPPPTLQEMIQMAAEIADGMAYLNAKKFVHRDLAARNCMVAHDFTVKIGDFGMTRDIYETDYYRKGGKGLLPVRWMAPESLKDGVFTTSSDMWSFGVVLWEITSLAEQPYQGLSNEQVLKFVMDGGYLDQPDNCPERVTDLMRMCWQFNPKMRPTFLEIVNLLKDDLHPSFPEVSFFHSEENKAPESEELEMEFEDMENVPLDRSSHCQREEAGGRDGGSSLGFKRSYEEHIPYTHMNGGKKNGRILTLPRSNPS
Method: Example compounds were tested for their ability to inhibit the kinase activity of baculovirus-expressed human insulin receptor cytoplasmic domain (βIRCD) using the TRF assay as described above for ALK. Phosphorylation of the substrate, recombinant GST-PLC-γ, was detected with a europium-labeled anti-phosphotyrosine antibody and measured by TRF. Each 96-well plate (Greiner#655074) was coated with 100 μL/well of 20 μg/mL substrate solution in TBS. The IR assay mixture (total volume=100 μL/well) consisting of 20 mM HEPES (pH 7.2), 20 μM ATP, 5 mM MnCl2, 0.1% BSA, and test compound (diluted in DMSO; 2.5% DMSO final in assay) was added to the assay plates. Enzyme (20 ng/mL βIRCD) was added and the reaction was allowed to proceed at room temperature for 20 minutes. Detection of the phosphorylated product was performed by adding 100 μL/well of Eu—N1 labeled PY100 antibody (PerkinElmer#AD0160; diluted 1:10,000 in TBS-T containing 0.25% BSA). Incubation at 37° C. for 1 hour was followed by addition of 50 μL enhancement solution (Wallace#1244-105). Plates were agitated for 10 minutes and the fluorescence was measured using the PerkinElmer EnVision™ 2102 or 2104 multi-label plate reader.
(§1) Data analysis was performed using ActivityBase (IDBS, Guilford, UK). IC50 values were calculated by plotting percent inhibition versus log10 of the concentration of compound and fitting to the nonlinear regression sigmoidal dose-response (variable slope) equation in XLFit (IDBS, Guilford, UK).

recombinant human FAK = biological target: T2, recombinant human FAK (Homo sapiens, UniProt Q05397); assay: FAK Enzyme Assay (TRF detection); format: biochemical; conditions: 10 μM ATP
T2 construct: purchased Invitrogen PV3832; host or cells: baculovirus expression system
T2 sequence (Q05397 whole entry): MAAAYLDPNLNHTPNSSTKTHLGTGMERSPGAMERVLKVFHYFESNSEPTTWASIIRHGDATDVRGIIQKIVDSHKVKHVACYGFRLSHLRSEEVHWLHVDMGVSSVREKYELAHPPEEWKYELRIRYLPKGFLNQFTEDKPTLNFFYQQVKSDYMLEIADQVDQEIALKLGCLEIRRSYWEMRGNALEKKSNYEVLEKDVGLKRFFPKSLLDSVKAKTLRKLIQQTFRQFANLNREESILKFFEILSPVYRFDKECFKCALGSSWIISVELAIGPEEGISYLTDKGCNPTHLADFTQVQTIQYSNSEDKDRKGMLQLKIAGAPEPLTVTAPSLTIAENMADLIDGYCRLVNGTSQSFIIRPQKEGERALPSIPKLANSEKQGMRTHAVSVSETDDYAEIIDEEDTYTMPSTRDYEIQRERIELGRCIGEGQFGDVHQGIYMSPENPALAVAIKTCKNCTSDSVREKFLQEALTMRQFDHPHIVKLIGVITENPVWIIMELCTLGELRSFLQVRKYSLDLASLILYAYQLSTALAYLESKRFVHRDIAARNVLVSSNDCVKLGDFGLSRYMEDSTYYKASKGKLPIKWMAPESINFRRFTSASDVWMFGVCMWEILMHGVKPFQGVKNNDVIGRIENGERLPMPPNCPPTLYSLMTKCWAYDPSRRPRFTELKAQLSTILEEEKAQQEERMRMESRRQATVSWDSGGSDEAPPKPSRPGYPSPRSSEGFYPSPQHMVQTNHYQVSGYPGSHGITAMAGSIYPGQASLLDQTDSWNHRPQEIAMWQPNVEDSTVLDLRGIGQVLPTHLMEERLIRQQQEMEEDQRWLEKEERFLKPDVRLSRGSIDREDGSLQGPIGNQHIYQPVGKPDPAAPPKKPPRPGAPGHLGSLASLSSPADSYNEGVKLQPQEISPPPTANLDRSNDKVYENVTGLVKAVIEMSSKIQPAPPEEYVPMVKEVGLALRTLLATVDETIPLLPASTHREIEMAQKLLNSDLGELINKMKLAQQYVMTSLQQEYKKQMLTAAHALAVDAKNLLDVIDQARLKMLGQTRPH
Method: Example compounds were tested for their ability to inhibit the kinase activity of baculovirus-expressed recombinant human FAK using the TRF detection system as described above for JAK2. IC50 runs were performed in 96-well Costar high binding plates (#3922). The plates were coated first with 100 μL/well of 10 μg/mL neutravidin in TBS at 37° C. for 2 h, followed by 100 μL/well of 1 μg/mL 15-mer peptide substrate (biotinyl-amino-hexanoyl-EQEDEPEGDYFEWLE-amide) at 37° C. for another hour. The FAK assay mixture (total volume=100 μL/well) consisting of 20 mM HEPES, pH 7.2, 10 μM ATP, 5 mM MgCl2, 0.5 mM DTT, 0.1% BSA, and test compound (diluted in DMSO; 2.5% DMSO final in assay) was then added to the assay plate. Enzyme (10 ng/mL FAK, Invitrogen #PV3832) was added and the reaction was allowed to proceed at room temperature for 30 minutes. Detection of the phosphorylated product was performed by adding 100 μL/well of Eu—N1 labeled PY100 antibody (diluted 1:75000 in antibody dilution buffer). Samples were incubated at room temperature for 1 hour, followed by addition of 100 μL enhancement solution. Plates were agitated for 10 minutes and fluorescence of the resulting solution measured using the PerkinElmer EnVision™ 2102 (or 2104) multi-label plate reader.
as §1

[2] = biological target: T3, baculovirus-expressed ALK (Homo sapiens, UniProt Q9UM73); assay: ALK Kinase Assay (ELISA/TRF); format: biochemical; conditions: 1 μM ATP (Km level)
T3 construct: host or cells: baculovirus expression system
T3 sequence (Q9UM73 19-1620): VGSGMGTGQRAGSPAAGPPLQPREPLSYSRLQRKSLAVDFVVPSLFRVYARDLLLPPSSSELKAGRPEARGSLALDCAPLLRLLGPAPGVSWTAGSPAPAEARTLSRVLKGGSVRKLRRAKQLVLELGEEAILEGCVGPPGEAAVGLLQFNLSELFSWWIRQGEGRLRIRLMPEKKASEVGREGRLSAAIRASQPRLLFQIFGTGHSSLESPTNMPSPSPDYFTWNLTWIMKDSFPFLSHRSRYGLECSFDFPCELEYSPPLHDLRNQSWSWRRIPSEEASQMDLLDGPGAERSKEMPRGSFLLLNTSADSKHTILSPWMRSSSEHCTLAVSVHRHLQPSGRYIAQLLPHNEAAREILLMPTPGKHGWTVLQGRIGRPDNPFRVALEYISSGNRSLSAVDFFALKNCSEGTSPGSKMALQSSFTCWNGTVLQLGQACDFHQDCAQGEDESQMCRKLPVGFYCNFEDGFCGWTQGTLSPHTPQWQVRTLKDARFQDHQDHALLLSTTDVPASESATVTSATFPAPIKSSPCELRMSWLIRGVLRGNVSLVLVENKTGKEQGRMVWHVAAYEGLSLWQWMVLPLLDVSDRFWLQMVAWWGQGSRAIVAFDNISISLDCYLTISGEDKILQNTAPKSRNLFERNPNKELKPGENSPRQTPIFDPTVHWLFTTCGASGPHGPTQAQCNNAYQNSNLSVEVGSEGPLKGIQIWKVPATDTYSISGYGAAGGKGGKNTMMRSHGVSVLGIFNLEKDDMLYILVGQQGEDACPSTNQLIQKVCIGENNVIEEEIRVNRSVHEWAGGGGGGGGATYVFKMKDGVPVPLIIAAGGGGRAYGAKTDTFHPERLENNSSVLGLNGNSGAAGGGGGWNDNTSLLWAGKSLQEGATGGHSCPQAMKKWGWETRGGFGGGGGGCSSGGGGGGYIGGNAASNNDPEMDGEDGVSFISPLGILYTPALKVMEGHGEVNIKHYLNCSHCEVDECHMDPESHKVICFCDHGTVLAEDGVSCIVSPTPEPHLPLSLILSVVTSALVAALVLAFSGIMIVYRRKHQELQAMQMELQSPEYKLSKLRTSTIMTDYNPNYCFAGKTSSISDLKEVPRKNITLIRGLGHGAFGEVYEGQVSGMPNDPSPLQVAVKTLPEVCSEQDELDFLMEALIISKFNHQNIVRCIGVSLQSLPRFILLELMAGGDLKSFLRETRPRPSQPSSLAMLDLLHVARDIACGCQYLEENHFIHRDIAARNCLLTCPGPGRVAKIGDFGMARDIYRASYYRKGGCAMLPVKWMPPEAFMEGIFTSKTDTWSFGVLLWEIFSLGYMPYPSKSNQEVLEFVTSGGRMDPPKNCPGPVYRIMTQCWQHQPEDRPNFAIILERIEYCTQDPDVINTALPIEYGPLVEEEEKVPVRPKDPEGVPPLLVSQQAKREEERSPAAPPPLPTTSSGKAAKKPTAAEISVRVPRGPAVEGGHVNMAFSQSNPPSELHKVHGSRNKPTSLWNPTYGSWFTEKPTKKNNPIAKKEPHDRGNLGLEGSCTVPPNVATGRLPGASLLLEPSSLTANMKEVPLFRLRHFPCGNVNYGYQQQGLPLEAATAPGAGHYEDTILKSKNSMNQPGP
Method: Briefly, each 96-well plate was coated with 100 μL/well of 10 μg/mL substrate (GST-PLC-γ) in Tris-buffered saline (TBS). […] The reaction was initiated by adding enzyme (30 ng/mL ALK) and was allowed to proceed at 37° C. for 15 minutes. Detection of the phosphorylated product was performed by adding 100 μL/well of Eu—N1 labeled PT66 antibody (Perkin Elmer #AD0041). […] Data analysis was performed using ActivityBase (IDBS, Guilford, UK). IC50 values were calculated by plotting percent inhibition versus log10 of the concentration of compound and fitting to the nonlinear regression sigmoidal dose-response (variable slope) equation in XLFit (IDBS, Guilford, UK).

[3] = biological target: T4, baculovirus-expressed JAK2 (Homo sapiens, UniProt O60674); assay: JAK2 Kinase Assay (TRF detection); format: biochemical; conditions: 0.2 μM ATP; average of two or more determinations; class symbols
T4 construct: host or cells: baculovirus expression system
T4 sequence (O60674 whole entry): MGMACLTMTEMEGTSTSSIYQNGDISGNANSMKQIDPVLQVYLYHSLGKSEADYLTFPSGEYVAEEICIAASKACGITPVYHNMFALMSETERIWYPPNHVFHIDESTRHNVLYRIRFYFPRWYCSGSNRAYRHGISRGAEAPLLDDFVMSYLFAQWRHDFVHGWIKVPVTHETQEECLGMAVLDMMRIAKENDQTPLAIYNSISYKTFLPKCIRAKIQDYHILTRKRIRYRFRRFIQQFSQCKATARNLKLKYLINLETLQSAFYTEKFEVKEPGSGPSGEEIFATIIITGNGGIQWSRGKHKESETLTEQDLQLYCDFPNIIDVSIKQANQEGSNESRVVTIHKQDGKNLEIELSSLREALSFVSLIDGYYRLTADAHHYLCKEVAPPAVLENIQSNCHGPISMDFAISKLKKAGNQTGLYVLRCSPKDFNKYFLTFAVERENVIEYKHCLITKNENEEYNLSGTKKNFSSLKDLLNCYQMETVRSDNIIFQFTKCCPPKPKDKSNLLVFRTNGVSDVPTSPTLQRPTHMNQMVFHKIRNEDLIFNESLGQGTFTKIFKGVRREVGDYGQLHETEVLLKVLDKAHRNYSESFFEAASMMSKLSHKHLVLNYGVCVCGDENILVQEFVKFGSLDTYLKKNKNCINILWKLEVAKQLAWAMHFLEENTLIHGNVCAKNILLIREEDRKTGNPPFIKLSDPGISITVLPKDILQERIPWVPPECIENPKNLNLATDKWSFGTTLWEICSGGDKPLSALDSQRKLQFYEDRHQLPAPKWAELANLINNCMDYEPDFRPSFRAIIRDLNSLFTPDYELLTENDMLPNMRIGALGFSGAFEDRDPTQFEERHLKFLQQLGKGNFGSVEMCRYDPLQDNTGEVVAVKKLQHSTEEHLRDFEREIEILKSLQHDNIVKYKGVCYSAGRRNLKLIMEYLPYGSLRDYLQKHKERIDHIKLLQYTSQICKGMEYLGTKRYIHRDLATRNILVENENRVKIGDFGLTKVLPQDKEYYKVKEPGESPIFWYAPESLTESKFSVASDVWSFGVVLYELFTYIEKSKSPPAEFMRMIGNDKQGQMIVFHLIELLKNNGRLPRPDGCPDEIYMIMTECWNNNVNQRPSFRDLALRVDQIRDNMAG
Method: Compounds were tested for their ability to inhibit the kinase activity of baculovirus-expressed JAK2 using the TRF detection system. IC50 runs were conducted in 96-well Costar high binding plates (Corning Costar #3922, Corning, N.Y.). The plates were coated first with 100 μL/well of 10 μg/mL Neutravidin (Pierce #31000, Rockford, Ill.) in TBS at 37° C. for 2 hours, followed by 100 μL/well of 1 μg/mL 15-mer peptide substrate (biotinyl-amino-hexanoyl-EQEDEPEGDYFEWLE-amide, Infinity Biotech Research and Resource, Aston, Pa.) at 37° C. for another hour. The JAK2 assay mixture (total volume=100 μL/well) consisting of 20 mM HEPES, pH 7.2, 0.2 μM ATP, 1 mM MnCl2, 0.1% BSA, and test compound (diluted in DMSO; 2.5% DMSO final in assay) was then added to the assay plate. Enzyme (15 ng/ml JAK2) was added and the reaction was allowed to proceed at room temperature for 20 minutes. Detection of the phosphorylated product was performed by adding 100 μL/well of Eu—N1 labeled PY100 antibody (PerkinElmer Life Sciences #AD0041, Boston, Mass.). Incubation at the room temperature then proceeded for 1 hour, followed by addition of 100 μl enhancement solution (PerkinElmer Life Sciences #1244-105, Boston, Mass.). The plate was gently agitated and after thirty minutes, the fluorescence of the resulting solution was measured using the PerkinElmer EnVision™ 2102 (or 2104) multi-label plate reader.
as §1

[4] = cc_pd bond, CH3CN, 120.0 °C
[5] = average of two or more determinations, class symbols

SMILES | IC50 ([1]; given as numeric bound) [nM] | IC50 (recombinant human FAK; given as numeric bound) [nM] | IC50 [2, 5] [nM] | IC50 [3] [nM] | IC50 (recombinant human FAK; [5]) [nM] | IC50 [1, 5] [nM] | IC50 ([2]; given as numeric bound) [nM] | ring closure, yield of all isomers ([4]; from C=Cc1cc(Nc2ncc(Cl)c(Nc3cc(Br)ccc3N(C)S(C)(=O)=O)n2)ccc1N1CCN(C)CC1, Pd(OAc)2 / tri-o-tolylphosphine, Et3N, 65.0 mM, 2.75 h) [%] | ring closure, yield of all isomers ([4]; from C=Cc1cc(Nc2ncc(Cl)c(Nc3cc(Br)ccc3S(=O)(=O)C(C)C)n2)ccc1N1CCN(C)CC1, Pd(OAc)2 / P(o-tolyl)3 / Et3N, 65.0 mM, 2.0 h) [%] | ring closure, yield of all isomers ([4]; from C=Cc1ccc(S(=O)(=O)C(C)C)c(Nc2nc(Nc3cc(Br)c(N4CCN(C)CC4)cc3OC)ncc2Cl)c1, Pd(OAc)2 / tri-o-tolylphosphine, Et3N, 31.3 mM, 0.25 h) [%]
COc1cc(C2CCN(C)CC2)c2cc1Nc1ncc(Cl)c(n1)Nc1cc(ccc1N(C)S(C)(=O)=O)CC2 [Example 8, 6-Chloro-10-(2-methanesulfonyl-methyl-amino)-17-(1-methyl-piperidin-4-yl)-19-methoxy-2,4,8,22-tetraazatetracyclo[14.3.1.1^3,7.1^9,13]docosa-1(20),3(22),4,6,9(21),10,12,16,18-nonaene Trifluoroacetate (1:1)] |  |  | < 10 | 101 to 1000 | < 10 | 101 to 1000 |  |  |  | 
CN1CCN(c2ccc3cc2/C=C\c2ccc(N(C)S(C)(=O)=O)c(c2)Nc2nc(ncc2Cl)N3)CC1 [Example 9, (14Z)-6-Chloro-10-(2-methanesulfonyl-methyl-amino)-17-(4-methylpiperazin-1-yl)-2,4,8,22-tetraazatetracyclo[14.3.1.1^3,7.1^9,13]docosa-1(20),3(22),4,6,9(21),10,12,14,16,18-decaene Trifluoroacetate (1:1)] | > 2000 |  | 10 to 100 | < 10 | < 10 |  |  | 37 |  | 
Clc1cnc2nc1Nc1cccc(c1)/C=C\c1cc(ccc1OCCN1CCCC1)N2 [Example 22, (14Z)-6-Chloro-17-[2-(pyrrolidin-1-yl)ethoxy]-2,4,8,22-tetraazatetracyclo[14.3.1.1^3,7.1^9,13]docosa-1(20),3(22),4,6,9(21),10,12,14,16,18-decaene] |  |  | 101 to 1000 | < 10 | 101 to 1000 | 1000 to 10000 |  |  |  | 
COc1ccc2cc1Nc1nc(ncc1Cl)Nc1ccc(N3CCOCC3)c(c1)CC2 [Example 21, 6-Chloro-10-methoxy-17-(morpholin-4-yl)-2,4,8,22-tetraazatetracyclo[14.3.1.1^3,7.1^9,13]docosa-1(20),3(22),4,6,9(21),10,12,16,18-nonaene Trifluoroacetate (1:1)] |  |  | > 10000 | < 10 | > 10000 | > 10000 |  |  |  | 
CC(C)S(=O)(=O)c1ccc2cc1Nc1nc(ncc1Cl)Nc1ccc(N3CCN(C)CC3)c(c1)/C=C\2 [Example 11, (14Z)-6-Chloro-10-(propane-2-sulfonyl)-17-(4-methylpiperazin-1-yl)-2,4,8,22-tetraazatetracyclo[14.3.1.1^3,7.1^9,13]docosa-1(20),3(22),4,6,9(21),10,12,14,16,18-decaene Trifluoroacetate (1:1)] |  |  | 10 to 100 | < 10 | 10 to 100 | 1000 to 10000 |  |  | 32 | 
CNC(=O)c1ccc2cc1Nc1nc(ncc1Cl)Nc1ccc(N3CCN(C)CC3)c(c1)/C=C\2 [Example 16, (14Z)-6-Chloro-10-(N-methylcarboxamido)-17-(4-methylpiperazin-1-yl)-2,4,8,22-tetraazatetracyclo[14.3.1.1^3,7.1^9,13]docosa-1(20),3(22),4,6,9(21),10,12,14,16,18-decaene] |  |  | 101 to 1000 | 10 to 100 | 101 to 1000 |  |  |  |  | 
COc1cc(N2CCN(C)CC2)c2cc1Nc1ncc(Cl)c(n1)Nc1cc(ccc1S(=O)(=O)C(C)C)/C=C\2 |  |  |  |  |  |  |  |  |  | 63

More lines, main results first:

IC50 ([1]; given as numeric bound) [nM] | IC50 (recombinant human FAK; given as numeric bound) [nM] | IC50 [2, 5] [nM] | IC50 [3] [nM] | IC50 (recombinant human FAK; [5]) [nM] | IC50 [1, 5] [nM] | IC50 ([2]; given as numeric bound) [nM] | SMILES | ring closure, yield of all isomers ([4]; from C=Cc1cc(Nc2ncc(Cl)c(Nc3cc(Br)ccc3N(C)S(C)(=O)=O)n2)ccc1N1CCN(C)CC1, Pd(OAc)2 / tri-o-tolylphosphine, Et3N, 65.0 mM, 2.75 h) [%] | ring closure, yield of all isomers ([4]; from C=Cc1cc(Nc2ncc(Cl)c(Nc3cc(Br)ccc3S(=O)(=O)C(C)C)n2)ccc1N1CCN(C)CC1, Pd(OAc)2 / P(o-tolyl)3 / Et3N, 65.0 mM, 2.0 h) [%] | ring closure, yield of all isomers ([4]; from C=Cc1ccc(S(=O)(=O)C(C)C)c(Nc2nc(Nc3cc(Br)c(N4CCN(C)CC4)cc3OC)ncc2Cl)c1, Pd(OAc)2 / tri-o-tolylphosphine, Et3N, 31.3 mM, 0.25 h) [%]
> 3000 | > 1000 | 1000 to 10000 | < 10 |  |  |  | O[C@@H]1c2cccc(c2)Nc2nc(ncc2Cl)Nc2cccc(c2)[C@@H]1O [Example 26, (14R,15S)-6-chloro-2,4,8,22-tetraazatetracyclo[14.3.1.1^3,7.1^9,13]docosa-1(20),3(22),4,6,9(21),10,12,16,18-nonaene-14,15-diol] |  |  | 
> 3000 |  | 10 to 100 | 101 to 1000 | 10 to 100 |  |  | COc1c2cc(c3c1CC[C@@H](N1CCOCC1)CC3)CCc1ccc(N(C)S(C)(=O)=O)c(c1)Nc1nc(ncc1Cl)N2 [Example 29, N-[(20S)-6-chloro-24-methoxy-20-(morpholin-4-yl)-2,4,8,27-tetraazapentacyclo[14.8.1.1^3,7.1^9,13.0^17,23]heptacosa-1(25),3(27),4,6,9(26),10,12,16,23-nonaen-10-yl]N-methylmethanesulfonamide] |  |  | 
 |  | < 10 | 10 to 100 | < 10 | 101 to 1000 |  | COc1cc(C2CCNCC2)c2cc1Nc1ncc(Cl)c(n1)Nc1cc(ccc1N(C)S(C)(=O)=O)CC2 [Example 28, 6-Chloro-10-(2-methanesulfonyl-methyl-amino)-17-(piperidin-4-yl)-19-methoxy-2,4,8,22-tetraazatetracyclo[14.3.1.1^3,7.1^9,13]docosa-1(20),3(22),4,6,9(21),10,12,16,18-nonaene Trifluoroacetate (1:1)] |  |  | 
 |  |  | < 10 | > 10000 | > 10000 | > 3000 | Clc1cnc2nc1Nc1cccc(c1)/C=C\c1cc(ccc1N1CCOCC1)N2 [Example 24, (14Z)-6-Chloro-17-(morpholin-4-yl)-2,4,8,22-tetraazatetracyclo[14.3.1.1^3,7.1^9,13]docosa-1(20),3(22),4,6,9(21),10,12,14,16,18-decaene] |  |  | 
 |  | > 10000 | < 10 | > 10000 | > 10000 |  | Clc1cnc2nc1Nc1cccc(c1)CCc1cc(ccc1N1CCOCC1)N2 [Example 25, 6-Chloro-17-(morpholin-4-yl)-2,4,8,22-tetraazatetracyclo[14.3.1.1^3,7.1^9,13]docosa-1(20),3(22),4,6,9(21),10,12,16,18-nonaene] |  |  | 
